Data reported in patent US20100130608A1, “COMPOSITIONS AND METHODS FOR REDUCING TRIGLYCERIDE LEVELS” (Martek Biosciences Corporation, priority 2008, published 2010).
Marks after values point to notes of the source that are not given here.

Tests used:
male Wister rats [1] = assay: Effect on triglyceride levels in high fructose diet rats; type: in vivo, rat; settings: for Triglycerides, mean: oral gavage, mean ± SD; for Serum triglycerides, LSMEAN: least squares mean
Excerpt: The effect of the DHA ethyl ester (DHA-EE) produced according to the method of Example 2 on triglyceride levels was investigated using male Wister rats. The DHA-EE used in this example contained DHA at about 93.6% (w/w) of the total fatty acid content of the dosage form. The effect of purified DHA-EE was compared to two different DHA-containing products: DHASCO-T® (Martek Bioscience Corporation, Columbia, Md.) and Lovaza® (Reliant Pharmaceuticals, Inc., Durham, N.C.). DHASCO-T® comprises approximately 45% DHA and 55% other fatty acids (with substantially no EPA). Lovaza® comprises approximately 41.7% DHA ethyl ester, 51.7% EPA ethyl ester, and 6.4% other fatty acids. The vehicle control comprised corn oil. 84 Wistar rats were randomized into 7 groups of 12 rats each. Each rat was administered orally a high fructose diet for 4-5 weeks to raise triglyceride levels. After 4-5 weeks, rats with a triglyceride level <300 mg/dL were excluded. Then each rat was administered either (a) a vehicle control, (b) DHA ethyl ester (0.6 g/kg/day, 1.3 g/kg/day, 2.5 g/kg/day, or 5.0 g/kg/day), (c) DHASCO-T (5.0 g/kg/day), or (d) Lovaza (5.0 g/kg/day) for 28 days by oral gavage. Diets were controlled for calories, nutrients and levels of vitamin E. Triglyceride levels of the rats were measured at 14 days and 28 days. Triglyceride values shown are averages for each treatment group, presented as actual mean values.
The triglyceride results presented below in Table 8 are calculated from the same data set as in Table 7. Triglyceride values shown in Table 8 are averages for each treatment group, presented as least squares mean values.

male Wister rats [2] = assay: Effect on total cholesterol levels in rats; type: in vivo, rat; settings: for Serum cholesterol, LSMEAN: least squares mean; for Serum cholesterol, mean: mean ± SD
Method: The effect of the DHA ethyl ester of Example 2 on cholesterol levels was investigated using male Wister rats, and was compared to DHASCO-T® and Lovaza®. The rats were administered either (a) a vehicle control, (b) DHA ethyl ester (0.6 g/kg/day, 1.3 g/kg/day, 2.5 g/kg/day, or 5.0 g/kg/day), (c) DHASCO-T (5.0 g/kg/day), or (d) Lovaza (5.0 g/kg/day) for 28 days. Cholesterol levels, i.e., total cholesterol, of the rats were measured at 14 days and 28 days. Total cholesterol values shown are averages for each treatment group, i.e., actual mean values.
The cholesterol results presented below in Table 10 are calculated from the same data set as in Table 9. Cholesterol level values shown in Table 10 are averages for each treatment group, presented as least squares mean values.

[3] = rat, in vivo
Excerpt: The plasma DHA fatty acid area percent and plasma EPA fatty acid area percent were determine in the rats at day 1 and day 29 (post necropsy).

[4] = 14 day, 0.6 g/kg/day fatty acid
[5] = 14 day, 1.3 g/kg/day fatty acid
[6] = 14 day, 2.5 g/kg/day fatty acid
[7] = 14 day, 5.0 g/kg/day fatty acid
[8] = 28 day, 0.6 g/kg/day fatty acid
[9] = 28 day, 1.3 g/kg/day fatty acid
[10] = 28 day, 2.5 g/kg/day fatty acid
[11] = 28 day, 5.0 g/kg/day fatty acid

Plasma DHA fatty acid area percent (in words) [3]: correlates with increasing dosing of DHA
Structure (SMILES): CC/C=C\C/C=C\C/C=C\C/C=C\C/C=C\C/C=C\CCC(=O)OCC [DHA-EE, ethyl docosahexaenoate]
Serum triglycerides % of control, LSMEAN (male Wister rats [1]; [4]): 65 % of control | Triglycerides % of control, mean (male Wister rats [1]; [4]): 67 % of control | Triglycerides, mean (male Wister rats [1]; [4]): 176.5 ± 96.4 mg/dL | Serum triglycerides, LSMEAN (male Wister rats [1]; [4]): 168.4† mg/dL | Serum triglycerides % of control, LSMEAN (male Wister rats [1]; [5]): 67 % of control | Triglycerides % of control, mean (male Wister rats [1]; [5]): 66 % of control | Triglycerides, mean (male Wister rats [1]; [5]): 175.2 ± 50.6 mg/dL | Serum triglycerides, LSMEAN (male Wister rats [1]; [5]): 173.6† mg/dL | Serum triglycerides % of control, LSMEAN (male Wister rats [1]; [6]): 47 % of control | Triglycerides % of control, mean (male Wister rats [1]; [6]): 44 % of control | Triglycerides, mean (male Wister rats [1]; [6]): 115.5 ± 60.9 mg/dL | Serum triglycerides, LSMEAN (male Wister rats [1]; [6]): 120.2† mg/dL | Serum triglycerides % of control, LSMEAN (male Wister rats [1]; [7]): 43 % of control | Triglycerides % of control, mean (male Wister rats [1]; [7]): 37 % of control | Triglycerides, mean (male Wister rats [1]; [7]): 97.6 ± 47.8 mg/dL | Serum triglycerides, LSMEAN (male Wister rats [1]; [7]): 110.7† mg/dL | Serum triglycerides % of control, LSMEAN (male Wister rats [1]; [8]): 93 % of control | Triglycerides % of control, mean (male Wister rats [1]; [8]): 95 % of control | Triglycerides, mean (male Wister rats [1]; [8]): 182.7 ± 86.9 mg/dL | Serum triglycerides, LSMEAN (male Wister rats [1]; [8]): 174.5 mg/dL | Serum triglycerides % of control, LSMEAN (male Wister rats [1]; [9]): 60 % of control | Triglycerides % of control, mean (male Wister rats [1]; [9]): 60 % of control | Triglycerides, mean (male Wister rats [1]; [9]): 114.7 ± 37.2 mg/dL | Serum triglycerides, LSMEAN (male Wister rats [1]; [9]): 113.1† mg/dL | Serum triglycerides % of control, LSMEAN (male Wister rats [1]; [10]): 60 % of control | Triglycerides % of control, mean (male Wister rats [1]; [10]): 56 % of control | Triglycerides, mean (male Wister rats [1]; [10]): 107.9 ± 58.4 mg/dL | Serum triglycerides, LSMEAN (male Wister rats [1]; [10]): 112.6† mg/dL | Serum triglycerides % of control, LSMEAN (male Wister rats [1]; [11]): 47 % of control | Triglycerides % of control, mean (male Wister rats [1]; [11]): 41 % of control | Triglycerides, mean (male Wister rats [1]; [11]): 78.9 ± 46.5 mg/dL | Serum triglycerides, LSMEAN (male Wister rats [1]; [11]): 87.6† mg/dL | Effect on triglyceride levels (in words) (male Wister rats [1]; at 14 days, even at the lowest dosage level (0.6 g/kg/day)): reduces triglyceride levels | Triglyceride levels versus control (in words) (male Wister rats [1]; day 28, 0.6 g DHA-EE): not significantly lower than control | Serum cholesterol % of control, LSMEAN (male Wister rats [2]; [4]): 80 % of control | Serum cholesterol % of control, mean (male Wister rats [2]; [4]): 79 % of control | Serum cholesterol, LSMEAN (male Wister rats [2]; [4]): 72.4 mg/dL | Serum cholesterol, mean (male Wister rats [2]; [4]): 72.2 ± 17.7 mg/dL | Serum cholesterol % of control, LSMEAN (male Wister rats [2]; [5]): 82 % of control | Serum cholesterol % of control, mean (male Wister rats [2]; [5]): 82 % of control | Serum cholesterol, LSMEAN (male Wister rats [2]; [5]): 74.6 mg/dL | Serum cholesterol, mean (male Wister rats [2]; [5]): 75.0 ± 24.0 mg/dL | Serum cholesterol % of control, LSMEAN (male Wister rats [2]; [6]): 85 % of control | Serum cholesterol % of control, mean (male Wister rats [2]; [6]): 85 % of control | Serum cholesterol, LSMEAN (male Wister rats [2]; [6]): 77.4 mg/dL | Serum cholesterol, mean (male Wister rats [2]; [6]): 77.6 ± 23.1 mg/dL | Serum cholesterol % of control, LSMEAN (male Wister rats [2]; [7]): 75 % of control | Serum cholesterol % of control, mean (male Wister rats [2]; [7]): 74 % of control | Serum cholesterol, LSMEAN (male Wister rats [2]; [7]): 67.8 mg/dL | Serum cholesterol, mean (male Wister rats [2]; [7]): 67.1 ± 17.9 mg/dL | Serum cholesterol % of control, LSMEAN (male Wister rats [2]; [8]): 80 % of control | Serum cholesterol % of control, mean (male Wister rats [2]; [8]): 80 % of control | Serum cholesterol, LSMEAN (male Wister rats [2]; [8]): 80.6 mg/dL | Serum cholesterol, mean (male Wister rats [2]; [8]): 80.3 ± 21.8 mg/dL | Serum cholesterol % of control, LSMEAN (male Wister rats [2]; [9]): 62 % of control | Serum cholesterol % of control, mean (male Wister rats [2]; [9]): 62 % of control | Serum cholesterol, LSMEAN (male Wister rats [2]; [9]): 61.6† mg/dL | Serum cholesterol, mean (male Wister rats [2]; [9]): 62.0 ± 16.0 mg/dL | Serum cholesterol % of control, LSMEAN (male Wister rats [2]; [10]): 72 % of control | Serum cholesterol % of control, mean (male Wister rats [2]; [10]): 72 % of control | Serum cholesterol, LSMEAN (male Wister rats [2]; [10]): 71.3† mg/dL | Serum cholesterol, mean (male Wister rats [2]; [10]): 71.5 ± 17.8 mg/dL | Serum cholesterol % of control, LSMEAN (male Wister rats [2]; [11]): 60 % of control | Serum cholesterol % of control, mean (male Wister rats [2]; [11]): 60 % of control | Serum cholesterol, LSMEAN (male Wister rats [2]; [11]): 60.9† mg/dL | Serum cholesterol, mean (male Wister rats [2]; [11]): 60.2 ± 19.3 mg/dL | Effect on cholesterol levels (in words) (male Wister rats [2]; by 14 days, even at the lowest dosage level): reduces cholesterol levels | Plasma EPA fatty acid area percent (in words) [3]: does not increase in rats administered DHA-EE or DHASCO® to the same extent that it is increased in Lovaza®
